Experimental data: US9682990B2, “Alcohol-, diol-, and carbohydrate-substituted indenoisoquinolines as topoisomerase I inhibitors” (Purdue Research Foundation, priority 2011, dated 2017)

Legend:
[1] = test system: all human cancer cell lines successfully tested; assay: NCI-60 cell line assay, mean-graph midpoint; format: cell-based; details: for GI50: Homo sapiens, Table 3, NCI-60, unit inferred, read-out: MGM GI50; for MGM (mean graph midpoint for growth inhibition): all human cancer cell lines tested, 10^−8 to 10^−4 molar
Method: Biological Results. The indenoisoquinoline analogues were tested for antiproliferative activity in the National Cancer Institute's Developmental Therapeutics Assay against cell lines derived from approximately 60 different human tumors. […] The cytotoxicities of the compounds to cultured cancer cells were measured in the National Cancer Institute's 60 cell line assay (a.k.a. NCI-60).

[2] = target: Tyrosyl-DNA phosphodiesterase 1 (TDP1) (Homo sapiens, UniProt Q9NUW8); assay: TDP1 inhibition; format: biochemical; details: scores correspond to IC50 ranges
Tyrosyl-DNA phosphodiesterase 1 (TDP1), sequence (Q9NUW8 whole entry, species assumed): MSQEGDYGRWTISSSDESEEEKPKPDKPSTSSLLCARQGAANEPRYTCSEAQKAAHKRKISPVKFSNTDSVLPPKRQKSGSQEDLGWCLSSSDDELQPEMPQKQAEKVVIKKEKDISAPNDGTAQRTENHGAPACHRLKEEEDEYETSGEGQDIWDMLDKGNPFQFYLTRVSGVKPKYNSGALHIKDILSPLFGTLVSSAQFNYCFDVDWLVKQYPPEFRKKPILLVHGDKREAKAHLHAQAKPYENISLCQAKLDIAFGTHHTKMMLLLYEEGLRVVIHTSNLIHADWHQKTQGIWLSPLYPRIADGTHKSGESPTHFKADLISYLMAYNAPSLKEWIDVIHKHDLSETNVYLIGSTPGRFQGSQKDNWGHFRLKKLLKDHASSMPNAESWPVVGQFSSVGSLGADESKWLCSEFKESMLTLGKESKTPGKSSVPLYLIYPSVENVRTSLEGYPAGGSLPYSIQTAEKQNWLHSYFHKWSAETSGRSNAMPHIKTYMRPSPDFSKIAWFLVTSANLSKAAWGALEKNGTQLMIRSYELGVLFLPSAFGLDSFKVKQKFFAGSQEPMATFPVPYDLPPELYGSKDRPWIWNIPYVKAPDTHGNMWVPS
Excerpt: Tyrosyl-DNA phosphodiesterase 1 (TDP1) is a DNA repair enzyme that repairs cytotoxic DNA damage induced by Top1 inhibitors.

SN12C (Renal) = assay: NCI Developmental Therapeutics antiproliferative assay, SN12C; format: cell-based, human; details: Homo sapiens; SN12C; 50% growth inhibition; read-out: Cytotoxicity (GI50) Renal SN12C
Method: (§1) Biological Results. The indenoisoquinoline analogues were tested for antiproliferative activity in the National Cancer Institute's Developmental Therapeutics Assay against cell lines derived from approximately 60 different human tumors. […] Results are reported in Table 2 as GI50 values for selected cell lines, and overall antiproliferative potency is quantified as a mean-graph midpoint (MGM).

MCF7 (Breast) = assay: NCI Developmental Therapeutics antiproliferative assay, MCF7; format: cell-based, human; details: Homo sapiens; MCF7; 50% growth inhibition; read-out: Cytotoxicity (GI50) Breast MCF7
Method: as §1

UACC-62 (Melanoma) = assay: NCI Developmental Therapeutics antiproliferative assay, UACC-62; format: cell-based, human; details: Homo sapiens; UACC-62; 50% growth inhibition; read-out: Cytotoxicity (GI50) Melanoma UACC-62
Method: (§2) Biological Results. The indenoisoquinoline analogues were tested for antiproliferative activity in the National Cancer Institute's Developmental Therapeutics Assay against cell lines derived from approximately 60 different human tumors.

OVCAR-3 (Ovarian) = assay: NCI Developmental Therapeutics antiproliferative assay, OVCAR-3; format: cell-based, human; details: Homo sapiens; OVCAR-3; 50% growth inhibition; read-out: Cytotoxicity (GI50) Ovarian OVCAR-3
Method: as §1

DU-145 (Prostate) = assay: NCI Developmental Therapeutics antiproliferative assay, DU-145; format: cell-based, human; details: Homo sapiens; DU-145; 50% growth inhibition; read-out: Cytotoxicity (GI50) Prostate DU-145
Method: as §2

Human recombinant Top1 = target: T1, Human recombinant Top1 (Homo sapiens, UniProt P11387); assay: Top1-mediated DNA cleavage assay; details: scale relative to 1 μM camptothecin
T1 sequence (P11387 1-765): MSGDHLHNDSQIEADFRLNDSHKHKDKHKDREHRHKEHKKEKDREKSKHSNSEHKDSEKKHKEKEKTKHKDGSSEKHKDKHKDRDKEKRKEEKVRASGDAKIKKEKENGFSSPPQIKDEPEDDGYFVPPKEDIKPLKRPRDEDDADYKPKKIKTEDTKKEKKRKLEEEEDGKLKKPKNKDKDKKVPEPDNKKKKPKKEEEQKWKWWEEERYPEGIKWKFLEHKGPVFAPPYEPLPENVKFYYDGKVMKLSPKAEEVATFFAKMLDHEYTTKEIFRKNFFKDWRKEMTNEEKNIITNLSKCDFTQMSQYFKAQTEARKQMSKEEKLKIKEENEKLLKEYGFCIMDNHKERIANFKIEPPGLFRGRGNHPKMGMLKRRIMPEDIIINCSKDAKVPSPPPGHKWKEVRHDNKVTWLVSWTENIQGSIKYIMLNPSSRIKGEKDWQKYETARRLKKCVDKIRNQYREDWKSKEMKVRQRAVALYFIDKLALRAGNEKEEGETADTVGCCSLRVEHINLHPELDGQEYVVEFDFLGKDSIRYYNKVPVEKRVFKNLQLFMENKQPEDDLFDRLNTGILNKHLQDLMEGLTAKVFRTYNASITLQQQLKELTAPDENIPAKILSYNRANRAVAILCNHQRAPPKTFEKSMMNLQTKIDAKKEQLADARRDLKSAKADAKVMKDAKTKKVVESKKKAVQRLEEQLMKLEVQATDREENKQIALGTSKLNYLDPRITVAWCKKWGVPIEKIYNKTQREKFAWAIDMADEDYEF
Method: Topoisomerase I-Mediated DNA Cleavage Reactions. Human recombinant Top1 was purified from Baculovirus as previously described. […] Unincorporated [32]P-dGTP was removed using mini Quick Spin DNA columns (Roche, Indianapolis, Ind.), and the eluate containing the 3'-end-labeled DNA substrate was collected. […] The reactions were terminated by adding SDS (0.5% final concentration) followed by the addition of two volumes of loading dye (80% formamide, 10 mM sodium hydroxide, 1 mM sodium EDTA, 0.1% xylene cyanol, and 0.1% bromphenol blue). Aliquots of each reaction were subjected to 20% denaturing PAGE. Gels were dried and visualized by using a Phosphoimager and ImageQuant software (Molecular Dynamics).

HOP-62 (Lung) = assay: NCI Developmental Therapeutics antiproliferative assay, HOP-62; format: cell-based, human; details: Homo sapiens; HOP-62; 50% growth inhibition; read-out: Cytotoxicity (GI50) Lung HOP-62
Method: as §2

SF-539 (CNS) = assay: NCI Developmental Therapeutics antiproliferative assay, SF-539; format: cell-based, human; details: Homo sapiens; SF-539; 50% growth inhibition; read-out: Cytotoxicity (GI50) CNS SF-539
Method: as §1

HCT-116 (Colon) = assay: NCI Developmental Therapeutics antiproliferative assay, HCT-116; format: cell-based, human; details: Homo sapiens; HCT-116; 50% growth inhibition; read-out: Cytotoxicity (GI50) Colon HCT-116
Method: as §2

[3] = test system: cell lines derived from approximately 60 different human tumors; assay: NCI initial one-dose screening assay; format: cell-based; details: percentage of cell growth, one-dose assay at 10 μM

O=C1c2cc3c(cc2-c2c1c1cc(F)c(F)cc1c(=O)n2C[C@H](O)CO)OCO3
GI50 [1]: 0.068 µM
IC50 [2]: > 111 µM

O=C1c2cc3c(cc2-c2c1c1ccc(F)cc1c(=O)n2C[C@H](O)[C@@H](O)[C@H](O)CO)OCO3
GI50 [1]: 0.078 µM
IC50 [2]: > 111 µM

O=C1c2cc3c(cc2-c2c1c1ccc(F)cc1c(=O)n2C[C@H](O)CO)OCO3
GI50 [1]: 0.105 µM
IC50 [2]: > 111 µM

O=C1c2ccccc2-c2c1c1ccccc1c(=O)n2C[C@H](O)CO [Compound 12a, (2′S)-5,6-Dihydro-6-[(2′,3′-dihydroxypropyl)]-5,11-dioxo-11H-indeno[1,2-c]isoquinoline]
MGM (mean graph midpoint for growth inhibition) [1]: 8.71 µM
GI50 (SN12C (Renal)): 6.92 µM
GI50 (MCF7 (Breast)): 4.9 µM
GI50 (UACC-62 (Melanoma)): 5.37 µM
GI50 (OVCAR-3 (Ovarian)): 14.5 µM
GI50 (DU-145 (Prostate)): 5.75 µM
Top1 inhibitory activity (Human recombinant Top1): +++ (+++, between 75% and 95% activity)
GI50 (HOP-62 (Lung)): 5.01 µM
GI50 (SF-539 (CNS)): 7.41 µM

O=C1c2cc3c(cc2-c2c1c1cc(Cl)c(Cl)cc1c(=O)n2C[C@H](O)CO)OCO3
GI50 [1]: 0.013 µM
IC50 [2]: > 111 µM

O=C1c2cc3c(cc2-c2c1c1ccc(Cl)cc1c(=O)n2C[C@H](O)CO)OCO3
GI50 [1]: 0.042 µM
IC50 [2]: > 111 µM

O=C1c2cc3c(cc2-c2c1c1ccc(Cl)cc1c(=O)n2C[C@H](O)[C@H](O)[C@H](O)CO)OCO3
IC50 [2]: > 111 µM

O=C1c2ccccc2-c2c1c1ccccc1c(=O)n2C[C@@H](O)CO [Compound 12b, (2′R)-5,6-Dihydro-6-[(2′,3′-dihydroxypropyl)]-5,11-dioxo-11H-indeno[1,2-c]isoquinoline]
melting point: 200 to 205 °C
MGM (mean graph midpoint for growth inhibition) [1]: 6.24 ± 0.22 µM
GI50 (SN12C (Renal)): 3.77 µM
GI50 (MCF7 (Breast)): 3.04 µM
GI50 (UACC-62 (Melanoma)): 4.36 µM
GI50 (OVCAR-3 (Ovarian)): 16.1 µM
GI50 (DU-145 (Prostate)): 2.34 µM
GI50 (HOP-62 (Lung)): 3.79 µM
GI50 (HCT-116 (Colon)): 4.47 µM
GI50 (SF-539 (CNS)): 5.72 µM

O=C(CO)Cn1c2c(c3ccccc3c1=O)C(=O)c1ccccc1-2 [Compound 25, 5,6-Dihydro-6-(3′-hydroxy-2′-oxopropyl)-5,11-dioxo-11H-indeno[1,2-c]isoquinoline]
MGM (mean graph midpoint for growth inhibition) [1]: 20.9 µM
GI50 (SN12C (Renal)): 81.3 µM
GI50 (MCF7 (Breast)): 32.3 µM
GI50 (UACC-62 (Melanoma)): 58.9 µM
GI50 (OVCAR-3 (Ovarian)): 5.23 µM
GI50 (DU-145 (Prostate)): 17.8 µM
GI50 (HOP-62 (Lung)): 40.7 µM
GI50 (HCT-116 (Colon)): 30.9 µM
Growth Percent [3]: 72.36%
GI50 (SF-539 (CNS)): 20 µM
